pIC50: −log10 of the molar value.
Molecular target: T1, rabbit muscle glycogen phosphorylase (GPa) (Oryctolagus cuniculus, UniProt P00489)
T1 sequence (P00489 2-843 limits assumed): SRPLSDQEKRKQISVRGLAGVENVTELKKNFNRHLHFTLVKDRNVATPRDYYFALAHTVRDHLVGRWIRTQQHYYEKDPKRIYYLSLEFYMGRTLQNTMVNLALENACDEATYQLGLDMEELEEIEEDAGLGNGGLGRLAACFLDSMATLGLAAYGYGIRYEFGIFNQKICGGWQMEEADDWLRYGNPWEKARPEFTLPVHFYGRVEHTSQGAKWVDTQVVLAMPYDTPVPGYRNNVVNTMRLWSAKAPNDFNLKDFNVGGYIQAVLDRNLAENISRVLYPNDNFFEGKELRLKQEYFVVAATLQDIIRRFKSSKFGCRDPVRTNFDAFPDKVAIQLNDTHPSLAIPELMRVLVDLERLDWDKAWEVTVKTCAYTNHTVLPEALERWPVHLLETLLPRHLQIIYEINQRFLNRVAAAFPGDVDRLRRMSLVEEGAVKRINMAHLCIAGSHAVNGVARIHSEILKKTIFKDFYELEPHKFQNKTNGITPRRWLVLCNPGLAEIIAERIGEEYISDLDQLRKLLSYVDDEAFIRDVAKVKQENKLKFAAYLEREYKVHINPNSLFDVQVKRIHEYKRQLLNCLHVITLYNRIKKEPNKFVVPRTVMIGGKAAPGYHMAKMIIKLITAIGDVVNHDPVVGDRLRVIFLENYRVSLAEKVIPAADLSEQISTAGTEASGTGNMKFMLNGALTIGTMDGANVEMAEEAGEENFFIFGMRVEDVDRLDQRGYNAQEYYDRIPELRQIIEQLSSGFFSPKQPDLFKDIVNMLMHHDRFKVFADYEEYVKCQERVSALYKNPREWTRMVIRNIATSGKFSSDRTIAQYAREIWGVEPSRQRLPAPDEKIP
Assay: Glycogen phosphorylase in vitro inhibitory activity assay
Assay type: biochemical
Details: GPa 250 ng/100 μl, 30° C. 20 minutes, colorimetry at 655 nm
Method: Glycogen Phosphorylase In Vitro Inhibitory Activity Assay
Preparation of reagents: 1) preparation of color developing solution: 5 g of ammonium molybdate was weighed, dissolved in 500 ml of 1M HCl and stirred with a stirrer until completely dissolved. Then the mixture was added with 190 mg of malachite green with stirring until completely dissolved. The solution prepared was wrapped with an aluminum foil to protect it from exposure to light; 2) preparation of buffer: {circumflex over (1)} 0.5958 g of Hepes was precisely weighed and dissolved in 5 ml H2O. […]
Determination of dose-response curve of rabbit muscle glycogen phosphorylase activity: a dose-response curve was determined by reading OD values of various concentrations of GPa solutions at 655 nm after added with a color developing solution. The amount of GPa can be 250 ng as determined from the dose-response curve.
Experimental procedure: 1) designing PC (positive control), Blank (blank control), positive drug (caffeine); 2) adding 52 μl of reaction buffer; 3) adding the test compound to a final concentration; 4) adding 1 μl of enzyme to a final concentration of 250 ng/100 μl; 5) adding 150 μl of the color developing solution; 6) reacting at 30° C. for 20 minutes; 7) colorimetry determination at a wavelength of 655 nm; 8) reading data and calculating inhibitory activity: Inhibitory Activity=(PC−test sample)/(PC−Blank)

O=C(Nc1ccc2c(c1)C(=O)NCCO2)c1cc2cc(Cl)ccc2[nH]1 [Example 1, 7-(5-Chloro-1H-indole-2-carboxamido)-3,4-dihydrobenzo[f][1,4]oxazepin-5(2H)-one]
pIC50: > 7.00

From patent US9868735B2, “Benzazepine ketone compounds as glycogen phosphorylase inhibitor, preparation method therefor, and medical uses” (CHENGDE MEDICAL UNIVERSITY, priority 2013, dated 2018)
